From US20100184683A1, “ANTIBACTERIAL AND ANTIFUNGAL PEPTIDES” (C3 JIAN, INC., priority 2009, published 2010)
Values after ≈ are worked out from the molar mass of the structure shown. Where two headings read alike, the source gives them in different places. Peptide text beside a SMILES is read from it.

What was measured:
[1] = tested on: T. rubrum; type: cell-based, Trichophyton rubrum
Method: (§1) In certain embodiments the MIC assays are performed as described herein in the Examples. For each organism, the media and growth conditions utilized is detailed in Table 8.
(§2) In certain embodiments the MIC assays are performed as follows: For each organism, the media and growth conditions utilized is detailed in Table 8.

[2] = tested on: S. epidermidis; type: cell-based
Method: as §1, §2

[3] = tested on: C. albicans; type: cell-based, Candida albicans
Method: as §1, §2

[4] = tested on: B. subtilis; type: cell-based, Bacillus subtilis; details: B. subtilis; BHI, 30° C., aerobic; inoculum 10^5 CFU/ml; 18-24 h or 48 h
Method: as §1, §2

[5] = tested on: S. mutans; type: cell-based, Streptococcus mutans; details: S. mutans; TH supplemented with 1% sucrose, 37° C., anaerobic; inoculum 10^5 CFU/ml; 18-24 h or 48 h
Method: as §1, §2

Compound	MIC [1]	MIC [3]	further results
CC[C@H](C)[C@H](NC(=O)[C@H](CCCCN)NC(=O)[C@H](C)NC(=O)[C@H](Cc1ccccc1)NC(=O)[C@@H](NC(=O)[C@H](C)NC(=O)[C@H](CC(C)C)NC(=O)[C@H](CO)NC(=O)[C@@H](N)CC(C)C)[C@@H](C)O)C(=O)N[C@@H](Cc1ccccc1)C(=O)N[C@@H](CCSC)C(=O)N[C@H](C(=O)N[C@@H](CCCNC(=N)N)C(=O)N[C@@H](CO)C(=O)N[C@@H](CC(N)=O)C(=O)N[C@@H](Cc1c[nH]c2ccccc12)C(=O)N[C@@H](CO)C(=O)N[C@@H](CC(C)C)C(=O)N[C@@H](CCCCN)C(=O)N[C@@H](CCCNC(=N)N)C(=O)N[C@@H](Cc1ccccc1)C(=O)N[C@@H](CC(N)=O)C(=O)N[C@@H](CCCNC(=N)N)C(=O)N[C@@H](CC(C)C)C(=O)O)[C@@H](C)O [PF-278] (H-LSLATFAKIFMTRSNWSLKRFNRL-OH; N-terminus and C-terminus assumed)	50 µM	50 µM	MIC [2]: 50 µM
CC[C@H](C)[C@H](NC(=O)[C@H](CCCNC(=N)N)NC(=O)[C@H](C)NC(=O)[C@@H]1CCCN1C(=O)[C@H](Cc1c[nH]c2ccccc12)NC(=O)[C@H](CC(C)C)NC(=O)[C@H](CCCNC(=N)N)NC(=O)[C@H](CCCCN)NC(=O)[C@@H](N)Cc1c[nH]c2ccccc12)C(=O)N[C@@H](CC(C)C)C(=O)N[C@@H](C)C(=O)NCC(=O)N[C@@H](Cc1c[nH]cn1)C(=O)N[C@@H](CO)C(=O)N[C@@H](CCCNC(=N)N)C(=O)N[C@@H](CCCNC(=N)N)C(=O)N[C@@H](CCCNC(=N)N)C(=O)N[C@@H](CCSC)C(=O)N[C@@H](CCCNC(=N)N)C(=O)N[C@@H](Cc1c[nH]c2ccccc12)C(=O)N[C@@H](CCSC)C(=O)N[C@H](C(=O)N[C@H](C(=O)N[C@@H](Cc1c[nH]c2ccccc12)C(=O)N[C@@H](CCCNC(=N)N)C(=O)N[C@@H](Cc1ccc(O)cc1)C(=O)N[C@@H](Cc1ccccc1)C(=O)N[C@@H](C)C(=O)N[C@@H](C)C(=O)N[C@H](C(=O)O)[C@@H](C)O)C(C)C)C(C)C [PF-C021] (H-WKRLWPARILAGHSRRRMRWMVVWRYFAAT-OH; N-terminus and C-terminus assumed)	50 µM (≈ 193 µg/mL)	50 µM (≈ 193 µg/mL)	–
CC[C@H](C)[C@H](N)C(=O)N[C@@H](CC(C)C)C(=O)N[C@H](C(=O)N[C@@H](CC(C)C)C(=O)N[C@@H](CC(C)C)C(=O)N[C@@H](C)C(=O)N[C@@H](CC(C)C)C(=O)N[C@@H](CCC(N)=O)C(=O)N[C@H](C(=O)N[C@@H](CCC(=O)O)C(=O)N[C@@H](CC(C)C)C(=O)N[C@@H](CC(=O)O)C(=O)N[C@@H](CO)C(=O)N[C@@H](CCCCN)C(=O)N[C@@H](Cc1ccccc1)C(=O)N[C@@H](CCC(N)=O)C(=O)N[C@@H](Cc1ccc(O)cc1)C(=O)O)C(C)C)C(C)C [PF-C157] (H-ILVLLALQVELDSKFQY-OH; N-terminus and C-terminus assumed)	–	50 µM (≈ 99.6 µg/mL)	–
CC(C)[C@H](NC(=O)[C@@H](N)Cc1ccc(O)cc1)C(=O)N[C@@H](CC(N)=O)C(=O)N[C@@H](Cc1ccc(O)cc1)C(=O)N[C@@H](CC(N)=O)C(=O)N[C@@H](CCC(N)=O)C(=O)N[C@@H](CO)C(=O)N[C@@H](Cc1ccccc1)C(=O)N[C@@H](CC(N)=O)C(=O)N[C@@H](CO)C(=O)NCC(=O)N[C@@H](Cc1c[nH]c2ccccc12)C(=O)O [PF-C220] (H-YVNYNQSFNSGW-OH; N-terminus and C-terminus assumed)	–	50 µM (≈ 73.9 µg/mL)	–
WSRVPGHSDTGWKVWHRW [PF-547]	–	–	MIC ([1]; T. rubrum, Potato Dextrose Agar, 25° C., aerobic, inoculum 10^5 CFU/ml, 18-24 h or 48 h): 25 µM; MIC [4]: 25 µM; MIC [5]: 12.5 µM
